Data as given in ChEMBL document CHEMBL5058643, “Data for DCP probe BI-2081” (2022).

Columns and labels:
[1] = target: Vasopressin V1a receptor (Homo sapiens) (UniProt P37288); assay: V1A/HUM Eurofins SafetyScreen44 (BI); details: Compound concentration 10.0 uM
[2] = target: Cannabinoid receptor 1 (Homo sapiens) (UniProt P21554); assay: CB1(HU)_AGON Eurofins SafetyScreen44 (BI); details: filed as agonist; Compound concentration 10.0 uM
[3] = target: Gamma-aminobutyric acid receptor subunit alpha-1 (Rattus norvegicus) (UniProt P62813); assay: BZD/CENTR/R Eurofins SafetyScreen44 (BI); details: Compound concentration 10.0 uM
[4] = target: Histamine H2 receptor (Homo sapiens) (UniProt P25021); assay: H2/APT/HS Eurofins SafetyScreen44 (BI); details: filed as antagonist, Compound concentration 10.0 uM
[5] = target: T1, 5-hydroxytryptamine receptor 1A (Homo sapiens) (UniProt P08908); assay: 5HT1A/H Eurofins SafetyScreen44 (BI); details: Compound concentration 10.0 uM
T1 sequence (whole entry): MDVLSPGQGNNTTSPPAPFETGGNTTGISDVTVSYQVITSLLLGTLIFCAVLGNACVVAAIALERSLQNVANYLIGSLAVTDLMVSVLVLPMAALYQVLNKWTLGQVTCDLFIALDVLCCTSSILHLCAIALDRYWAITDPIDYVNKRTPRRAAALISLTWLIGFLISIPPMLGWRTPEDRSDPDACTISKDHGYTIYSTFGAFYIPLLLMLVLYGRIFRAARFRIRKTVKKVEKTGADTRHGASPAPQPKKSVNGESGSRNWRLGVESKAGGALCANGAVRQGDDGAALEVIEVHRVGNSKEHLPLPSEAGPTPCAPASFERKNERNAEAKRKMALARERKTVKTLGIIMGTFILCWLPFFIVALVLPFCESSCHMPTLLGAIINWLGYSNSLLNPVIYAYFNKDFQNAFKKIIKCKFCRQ

[6] = target: 5-hydroxytryptamine receptor 2B (Homo sapiens) (UniProt P41595); assay: 5HT2B/H AG Eurofins SafetyScreen44 (BI); details: filed as agonist, Compound concentration 10.0 uM
[7] = target: Angiotensin-converting enzyme (Homo sapiens) (UniProt P12821); assay: ACE(HU_AMTCH400) Eurofins SafetyScreen44 (BI); details: Compound concentration 10.0 uM
[8] = target: Neuronal acetylcholine receptor; alpha4/beta2 (Homo sapiens) (UniProt P17787+P43681); assay: N_NEURO_A4B2 Eurofins SafetyScreen44 (BI); type: protein-complex assay; details: filed as agonist, Compound concentration 10.0 uM
[9] = target: T2, Muscarinic acetylcholine receptor M2 (Homo sapiens) (UniProt P08172); assay: M2/HU Eurofins SafetyScreen44 (BI); details: Compound concentration 10.0 uM
T2 sequence (whole entry): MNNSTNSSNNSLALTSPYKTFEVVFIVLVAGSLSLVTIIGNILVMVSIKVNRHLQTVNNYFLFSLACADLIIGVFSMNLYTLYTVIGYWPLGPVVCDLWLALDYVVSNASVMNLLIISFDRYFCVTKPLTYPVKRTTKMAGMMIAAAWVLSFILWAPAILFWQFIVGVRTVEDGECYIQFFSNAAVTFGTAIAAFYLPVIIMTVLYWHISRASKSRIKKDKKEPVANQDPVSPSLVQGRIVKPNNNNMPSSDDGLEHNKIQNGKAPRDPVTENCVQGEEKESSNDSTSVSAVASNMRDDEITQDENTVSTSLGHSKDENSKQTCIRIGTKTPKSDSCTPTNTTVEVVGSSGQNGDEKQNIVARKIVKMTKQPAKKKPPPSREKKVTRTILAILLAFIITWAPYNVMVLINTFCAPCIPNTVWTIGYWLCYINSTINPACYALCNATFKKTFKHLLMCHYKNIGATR

[10] = target: Delta-type opioid receptor (Homo sapiens) (UniProt P41143); assay: DELTA/HU Eurofins SafetyScreen44 (BI); details: Compound concentration 10.0 uM
[11] = target: B1 bradykinin receptor (Homo sapiens) (UniProt P46663); assay: B1/H Eurofins SafetyScreen44 (BI); details: Compound concentration 10.0 uM
[12] = target: Beta-1 adrenergic receptor (Homo sapiens) (UniProt P08588); assay: BETA1/HU Eurofins SafetyScreen44 (BI); details: Compound concentration 10.0 uM
[13] = target: Neuropeptide Y receptor type 2 (Homo sapiens) (UniProt P49146); assay: Y2/HU Eurofins SafetyScreen44 (BI); details: Compound concentration 10.0 uM

Measured: residual activity

Histamine H2 receptor (Homo sapiens), sequence (P25021 whole entry): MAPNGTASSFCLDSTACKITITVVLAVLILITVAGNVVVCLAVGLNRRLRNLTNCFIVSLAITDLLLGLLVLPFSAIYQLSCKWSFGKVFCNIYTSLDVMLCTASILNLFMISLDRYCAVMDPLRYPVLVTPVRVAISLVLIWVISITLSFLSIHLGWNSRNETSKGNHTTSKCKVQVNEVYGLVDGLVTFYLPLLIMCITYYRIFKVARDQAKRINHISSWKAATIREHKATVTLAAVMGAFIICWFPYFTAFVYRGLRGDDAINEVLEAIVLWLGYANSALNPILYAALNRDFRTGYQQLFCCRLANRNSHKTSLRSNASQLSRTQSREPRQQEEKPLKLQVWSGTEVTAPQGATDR
Beta-1 adrenergic receptor (Homo sapiens), sequence (P08588 whole entry, looked up): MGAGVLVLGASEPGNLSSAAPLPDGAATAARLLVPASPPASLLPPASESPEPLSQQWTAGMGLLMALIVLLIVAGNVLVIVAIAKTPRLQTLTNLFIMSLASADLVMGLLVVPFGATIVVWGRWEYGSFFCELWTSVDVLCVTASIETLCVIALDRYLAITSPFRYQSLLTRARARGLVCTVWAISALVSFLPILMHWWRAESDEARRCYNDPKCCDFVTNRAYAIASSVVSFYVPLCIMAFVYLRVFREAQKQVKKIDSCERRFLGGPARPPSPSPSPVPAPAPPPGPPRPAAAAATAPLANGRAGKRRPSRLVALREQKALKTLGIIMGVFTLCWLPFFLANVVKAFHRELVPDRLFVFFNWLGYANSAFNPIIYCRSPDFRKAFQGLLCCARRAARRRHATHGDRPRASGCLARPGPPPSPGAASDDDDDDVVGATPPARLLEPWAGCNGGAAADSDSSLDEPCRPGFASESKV
Cannabinoid receptor 1 (Homo sapiens), sequence (P21554 whole entry): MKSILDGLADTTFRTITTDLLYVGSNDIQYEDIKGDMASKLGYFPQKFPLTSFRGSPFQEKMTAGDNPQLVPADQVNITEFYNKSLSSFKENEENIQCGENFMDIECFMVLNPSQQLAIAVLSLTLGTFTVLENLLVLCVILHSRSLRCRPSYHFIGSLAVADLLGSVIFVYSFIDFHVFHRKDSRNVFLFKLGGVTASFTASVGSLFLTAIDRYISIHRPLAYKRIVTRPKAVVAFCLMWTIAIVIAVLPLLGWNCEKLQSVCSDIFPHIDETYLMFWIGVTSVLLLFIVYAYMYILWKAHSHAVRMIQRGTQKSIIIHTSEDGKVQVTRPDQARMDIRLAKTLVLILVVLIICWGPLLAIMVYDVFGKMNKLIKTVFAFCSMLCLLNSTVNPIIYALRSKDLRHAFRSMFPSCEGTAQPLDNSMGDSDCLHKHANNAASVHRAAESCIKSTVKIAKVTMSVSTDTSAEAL
Vasopressin V1a receptor (Homo sapiens), sequence (P37288 whole entry, looked up): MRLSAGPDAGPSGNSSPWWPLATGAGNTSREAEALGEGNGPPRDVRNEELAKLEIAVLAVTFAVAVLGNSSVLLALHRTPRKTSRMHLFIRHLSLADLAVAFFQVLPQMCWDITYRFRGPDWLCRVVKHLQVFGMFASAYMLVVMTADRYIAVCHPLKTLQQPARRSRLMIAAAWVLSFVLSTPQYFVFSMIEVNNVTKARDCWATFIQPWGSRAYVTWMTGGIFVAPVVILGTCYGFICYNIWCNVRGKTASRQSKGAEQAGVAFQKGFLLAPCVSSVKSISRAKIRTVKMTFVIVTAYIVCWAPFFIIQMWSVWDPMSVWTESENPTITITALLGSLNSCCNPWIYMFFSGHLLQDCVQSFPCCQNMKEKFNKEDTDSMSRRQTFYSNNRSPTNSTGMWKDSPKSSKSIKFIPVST
B1 bradykinin receptor (Homo sapiens), sequence (P46663 whole entry): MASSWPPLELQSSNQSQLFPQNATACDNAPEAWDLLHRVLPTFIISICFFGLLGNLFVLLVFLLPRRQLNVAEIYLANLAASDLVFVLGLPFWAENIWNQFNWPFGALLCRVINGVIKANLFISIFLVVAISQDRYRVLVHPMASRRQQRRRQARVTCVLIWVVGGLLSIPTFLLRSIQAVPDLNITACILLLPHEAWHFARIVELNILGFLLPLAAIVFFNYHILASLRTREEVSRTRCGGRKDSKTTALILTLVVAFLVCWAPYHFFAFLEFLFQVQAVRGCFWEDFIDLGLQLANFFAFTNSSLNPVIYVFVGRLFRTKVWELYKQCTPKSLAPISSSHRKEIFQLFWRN
Neuropeptide Y receptor type 2 (Homo sapiens), sequence (P49146 whole entry): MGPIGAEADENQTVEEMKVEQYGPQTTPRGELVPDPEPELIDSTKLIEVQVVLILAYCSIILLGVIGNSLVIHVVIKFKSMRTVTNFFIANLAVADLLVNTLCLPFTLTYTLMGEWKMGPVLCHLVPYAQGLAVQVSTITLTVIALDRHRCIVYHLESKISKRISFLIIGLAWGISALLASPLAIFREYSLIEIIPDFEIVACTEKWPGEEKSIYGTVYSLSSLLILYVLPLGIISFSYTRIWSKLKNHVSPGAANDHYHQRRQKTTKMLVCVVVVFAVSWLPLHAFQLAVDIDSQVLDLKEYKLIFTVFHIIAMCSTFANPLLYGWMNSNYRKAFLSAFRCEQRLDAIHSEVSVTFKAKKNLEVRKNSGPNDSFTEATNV
Gamma-aminobutyric acid receptor subunit alpha-1 (Rattus norvegicus), sequence (P62813 whole entry): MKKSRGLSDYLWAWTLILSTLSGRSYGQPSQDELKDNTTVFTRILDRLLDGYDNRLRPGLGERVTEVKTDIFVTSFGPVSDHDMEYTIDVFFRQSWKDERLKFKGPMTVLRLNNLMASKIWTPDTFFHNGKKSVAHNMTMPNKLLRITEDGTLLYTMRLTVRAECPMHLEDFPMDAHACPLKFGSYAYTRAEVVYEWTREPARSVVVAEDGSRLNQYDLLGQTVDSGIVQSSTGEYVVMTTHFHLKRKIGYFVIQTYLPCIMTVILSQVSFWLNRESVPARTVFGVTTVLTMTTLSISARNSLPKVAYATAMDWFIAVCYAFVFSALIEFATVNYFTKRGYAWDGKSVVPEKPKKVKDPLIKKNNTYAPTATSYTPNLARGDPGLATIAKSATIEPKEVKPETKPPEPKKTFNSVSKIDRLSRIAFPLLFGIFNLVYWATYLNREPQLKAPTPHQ
Delta-type opioid receptor (Homo sapiens), sequence (P41143 whole entry): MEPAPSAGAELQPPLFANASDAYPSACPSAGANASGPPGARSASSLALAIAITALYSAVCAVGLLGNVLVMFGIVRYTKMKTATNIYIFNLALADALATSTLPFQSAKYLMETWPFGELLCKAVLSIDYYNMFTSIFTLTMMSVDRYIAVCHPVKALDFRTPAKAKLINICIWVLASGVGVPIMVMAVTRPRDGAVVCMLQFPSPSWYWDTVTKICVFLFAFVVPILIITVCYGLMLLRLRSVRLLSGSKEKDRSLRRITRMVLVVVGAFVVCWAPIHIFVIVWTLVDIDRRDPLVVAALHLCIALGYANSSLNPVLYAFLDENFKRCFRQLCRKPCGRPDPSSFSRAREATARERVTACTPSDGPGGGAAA
Angiotensin-converting enzyme (Homo sapiens), sequence (P12821 whole entry): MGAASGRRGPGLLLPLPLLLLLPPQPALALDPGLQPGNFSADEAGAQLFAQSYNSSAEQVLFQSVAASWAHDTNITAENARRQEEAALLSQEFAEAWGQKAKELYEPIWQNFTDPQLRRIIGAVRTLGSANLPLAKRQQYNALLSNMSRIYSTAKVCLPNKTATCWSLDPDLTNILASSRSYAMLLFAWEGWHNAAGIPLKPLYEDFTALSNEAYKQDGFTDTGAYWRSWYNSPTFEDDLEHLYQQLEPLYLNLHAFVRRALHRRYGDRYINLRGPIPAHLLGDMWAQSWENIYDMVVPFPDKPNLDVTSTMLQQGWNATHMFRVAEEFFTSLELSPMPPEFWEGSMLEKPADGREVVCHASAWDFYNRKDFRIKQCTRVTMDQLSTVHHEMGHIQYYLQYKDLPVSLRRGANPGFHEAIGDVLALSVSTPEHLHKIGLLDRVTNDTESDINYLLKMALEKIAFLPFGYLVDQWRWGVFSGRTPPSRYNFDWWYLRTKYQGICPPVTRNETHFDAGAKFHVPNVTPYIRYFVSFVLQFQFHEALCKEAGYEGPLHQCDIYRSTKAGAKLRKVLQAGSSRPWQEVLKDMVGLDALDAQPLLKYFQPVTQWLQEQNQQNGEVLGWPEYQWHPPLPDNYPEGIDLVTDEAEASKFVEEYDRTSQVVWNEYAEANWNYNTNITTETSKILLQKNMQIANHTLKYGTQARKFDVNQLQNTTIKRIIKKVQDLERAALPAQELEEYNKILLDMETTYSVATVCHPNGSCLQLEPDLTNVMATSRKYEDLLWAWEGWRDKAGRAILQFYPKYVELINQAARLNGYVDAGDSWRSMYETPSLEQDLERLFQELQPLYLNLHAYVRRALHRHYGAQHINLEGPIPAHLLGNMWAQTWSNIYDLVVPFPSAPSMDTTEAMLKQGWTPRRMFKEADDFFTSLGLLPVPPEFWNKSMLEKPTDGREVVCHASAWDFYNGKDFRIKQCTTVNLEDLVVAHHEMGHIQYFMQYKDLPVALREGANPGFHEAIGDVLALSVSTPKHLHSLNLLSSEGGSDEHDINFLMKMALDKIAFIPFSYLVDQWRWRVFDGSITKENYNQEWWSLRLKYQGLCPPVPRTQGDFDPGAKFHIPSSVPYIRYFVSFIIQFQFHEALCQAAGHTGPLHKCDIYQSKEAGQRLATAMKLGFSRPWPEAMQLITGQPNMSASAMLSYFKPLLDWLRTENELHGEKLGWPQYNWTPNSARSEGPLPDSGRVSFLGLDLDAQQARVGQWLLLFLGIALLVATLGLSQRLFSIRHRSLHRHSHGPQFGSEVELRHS

COCCCS(=O)(=O)c1cc(C)c(-c2ccc(F)c3c2CC[C@H]3Oc2ccc3c(c2)OC[C@H]3CC(=O)O)c(C)c1
inactive: [1] 90% | [2] 102% | [3] 109% | [4] 93% | [5] 103% | [6] 103% | [7] 99% | [8] 112%

Cc1cc(OCCC(C)(C)O)cc(C)c1-c1ccc(F)c2c1CC[C@H]2Oc1ccc2c(c1)OC[C@H]2CC(=O)O
inactive: [9] 92% | [10] 74% | [11] 91% | [12] 98% | [13] 99%
